# Experimental data as given in patent EP0347733A1, “Optically active hydantoin derivatives” (Eisai Co., Ltd., priority 1988, dated 1989).
# Assays:
# [1] = tested on: aconitine-induced arrhythmia; experiment: aconitine-induced arrhythmia model of mice; type: in vivo; conditions: orally administered one hour before intraperitoneal injection of 0.1 mg/kg of aconitine, tachycardia and frequency of ventricular extrasystole from the electrocardiogram, 60 min
# Protocol: The antiarrythmic activity of the compound of the present invention was examined with aconitine-induced arrhythmia model of mice. When 0.1 mg/kg of aconitine is intraperitoneally injected, usually ventricular tachycardia occurs within 20 minutes. The compound of the present invention (d- or ℓ-compound) was orally administered one hour before the intraperitoneal injection of 0.1 mg/kg of aconitine and the tachycardia and the frequency of ventricular extrasystole were determined from the electrocardiogram to determine the antiarrhythmic activity (ED₅₀). The ED₅₀ of the d-compound was 40 mg/kg and that of the ℓ-compound was 5 mg/kg.
# mice = experiment: acute toxicity tests with mice; type: in vivo
# Protocol: In the acute toxicity tests with mice, LD₅₀ of the d-compound was 700 mg/kg and that of the ℓ-compound was 200 mg/kg.
# myocardial contraction = experiment: influence on myocardial contraction; conditions: amount several times as much as the antiarrhythmically effective amount
# Description: One of the pharmacological features of the compounds of the present invention is that they inhibit myocardial contraction only very slightly. This is a quite desirable property when they are used as the antiarrhythmic agents.
Compound,antiarrhythmic activity (ED₅₀) [1] [mg/kg],LD₅₀ (mice) [mg/kg],influence on the myocardial contraction (myocardial contraction)
"CC1(C)CC2(NC(=O)N(CCCN3CCC(O)CC3)C2=O)c2cc(Cl)ccc2O1 (single isomer, unassigned) [d-compound, d-6-Chloro-2,2-dimethyl-1′-[3-(4-hydroxypiperidino)propyl]spiro[chroman-4,4′-imidazolidine]-2′,5′-dione]",40,700,
"CC1(C)CC2(NC(=O)N(CCCN3CCC(O)CC3)C2=O)c2cc(Cl)ccc2O1 (single isomer, unassigned) [ℓ-compound, ℓ-6-Chloro-2,2-dimethyl-1′-[3-(4-hydroxypiperidino)propyl]spiro[chroman-4,4′-imidazolidine]-2′,5′-dione]",5,200,
CC(C)N(CCC(C(N)=O)(c1ccccc1)c1ccccn1)C(C)C (stereo not drawn) [disopyramide],,,reduce myocardial contraction
C=C[C@H]1C[N@@]2CC[C@H]1C[C@@H]2[C@@H](O)c1ccnc2ccc(OC)cc12 [quinidine],,,reduce myocardial contraction
